Tests used:
hENPP2 [1] = molecular target: T1, hENPP2 (UniProtKB/SwissProt Q13822) (Homo sapiens (Human), UniProt Q13822); experiment: fluorescent hENPP2 biochemical assay, FS-3 as substrate; settings: read-out: FS3-IC50
Summary of the method: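 hENPP2 in 50 mM Tris-HCl pH 8.0, 250 mM NaCl, 5 mM KCl, 1 mM MgCl2, 1 mM CaCl2, 0.1% fatty-acid-free BSA, preincubated with compound 30 min at room temperature. The 0.75 μM FS-3 solution was added and the mixture incubated 30 min at 30° C. Fluorescence (ex 485/em 520 nm) gives IC50.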

hENPP2 [2] = molecular target: T1, hENPP2; experiment: hENPP2 biochemical assay, LPC as substrate; settings: LPC (palmitoyl 16:0) as substrate
Summary of the method: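 Human ENPP2 in 50 mM Tris-HCl pH 8.5, 500 mM NaCl, 5 mM KCl, 10 mM CaCl2, 0.1% fatty-acid-free BSA, reacted 30 min at 37 °C with LPC 16:0 (150 µM solution added 1:1). Released choline measured via choline oxidase/peroxidase/TOOS/4-aminoantipyrine quinoneimine dye at 555 nm; IC50 reported.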

LPA 18:2 in rat plasma = experiment: Rat whole blood (plasma) LPA assay; format: biochemical; settings: 2 h at 37 C, LPA 18:2 by LC-MS/MS
Summary of the method: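 Heparinised rat plasma spiked with compound (1% DMSO final), incubated 2 h at 37 °C, 5% CO2 with shaking; controls kept at −20 °C. After methanol precipitation with LPA 17:0 internal standard, LPA 18:2 measured by LC-MS/MS (C18, isocratic), relative quantities from peak area without calibration.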

Row | SMILES | IC50 (hENPP2 [1]) [nM] | IC50 (hENPP2 [2]) [nM] | IC50 (LPA 18:2 in rat plasma) [nM]
1 | CCc1nc2ccc(N3CCOC3=O)cn2c1N(C)c1nc(-c2ccc(Cl)cc2)cs1 [Compound 206, 3-(3-((4-(4-chlorophenyl)thiazol-2-yl)(methyl)amino)-2-ethylimidazo[1,2-a]pyridin-6-yl)oxazolidin-2-one] | 0.01 to 100 | > 1000 | > 1000
2 | CCc1nc2ccc(C3CCN(CC(=O)N4CCCC4)CC3)cn2c1N(C)c1nc(-c2ccc(F)cc2)cs1 [Compound 115, 2-(4-(2-ethyl-3-((4-(4-fluorophenyl)thiazol-2-yl)(methyl)amino)imidazo[1,2-a]pyridin-6-yl)piperidin-1-yl)-1-(pyrrolidin-1-yl)ethanone] | 0.01 to 100 | 0.01 to 100 | 0.01 to 100
3 | CCc1nc2ccc(N3CCN(Cc4ncco4)CC3)cn2c1N(C)c1nc(-c2ccc(F)cc2)cs1 [Compound 40] | 0.01 to 100 | > 1000 | 500 to 1000
4 | CCc1nc2c(C)cc(N3CCN(CC(=O)N4CC[C@@H](O)C4)CC3)cn2c1N(C)c1nc(-c2ccc(F)cc2)c(C#N)s1 [Compound 4, (R)-2-((2-ethyl-6-(4-(2-(3-hydroxypyrrolidin-1-yl)-2-oxoethyl)piperazin-1-yl)-8-methylimidazo[1,2-a]pyridin-3-yl)(methyl)amino)-4-(4-fluorophenyl)thiazole-5-carbonitrile] | 0.01 to 100 | 100 to 500 | 100 to 500
5 | CCc1nc2ccc(C3CCN(S(=O)(=O)CCCO)CC3)cn2c1N(C)c1nc(-c2ccc(F)cc2)cs1 [Compound 94, 3-[4-(2-Ethyl-3-{[4-(4-fluoro-phenyl)-thiazol-2-yl]-methyl-amino}-imidazo[1,2-a]pyridin-6-yl)-piperidine-1-sulfonyl]-propan-1-ol] | 0.01 to 100 | 500 to 1000 | 500 to 1000
6 | CCc1nc2ccc(C3CCN(CC(=O)N4CC(O)C4)CC3)cn2c1N(C)c1nc(-c2ccc(F)cc2)c(CO)s1 [Compound 156, 2-(4-(2-ethyl-3-((4-(4-fluorophenyl)-5-(hydroxymethyl)thiazol-2-yl)(methyl)amino)imidazo[1,2-a]pyridin-6-yl)piperidin-1-yl)-1-(3-hydroxyazetidin-1-yl)ethanone] | 0.01 to 100 | 500 to 1000 | > 1000
7 | CCc1nc2ccc(N3CCN(Cc4ncc[nH]4)CC3)cn2c1N(C)c1nc(-c2ccc(F)cc2)cs1 [Compound 226, N-(6-(4-((1H-imidazol-2-yl)methyl)piperazin-1-yl)-2-ethylimidazo[1,2-a]pyridin-3-yl)-4-(4-fluorophenyl)-N-methylthiazol-2-amine] | 0.01 to 100 | > 1000 | > 1000
8 | CCc1nc2ccc(N3CCN(S(=O)(=O)CCCO)CC3)cn2c1N(C)c1nc(-c2ccc(F)cc2)cs1 [Compound 58, 3-(4-(2-ethyl-3-((4-(4-fluorophenyl)thiazol-2-yl)(methyl)amino)imidazo[1,2-a]pyridin-6-yl)piperazin-1-ylsulfonyl)propan-1-ol] | 0.01 to 100 | > 1000 | > 1000

The remaining lines, values ahead:

Row | IC50 (hENPP2 [1]) [nM] | IC50 (hENPP2 [2]) [nM] | IC50 (LPA 18:2 in rat plasma) [nM] | SMILES
9 | 0.01 to 100 | 0.01 to 100 | 0.01 to 100 | CN(C)C(=O)CN1CCC(c2ccc3nc(CCC#N)c(N(C)c4nc(-c5ccc(F)cc5)cs4)n3c2)CC1 [Compound 174, 2-(4-(2-(2-cyanoethyl)-3-((4-(4-fluorophenyl)thiazol-2-yl)(methyl)amino)imidazo[1,2-a]pyridin-6-yl)piperidin-1-yl)-N,N-dimethylacetamide]
10 | 0.01 to 100 | 0.01 to 100 | 0.01 to 100 | CCc1nc2ccc(C3CCN(CC(=O)N(C)C)CC3)cn2c1N(C)c1nc(-c2ccc(F)cc2)c(C#N)s1 [Compound 145, 2-(4-(3-((5-cyano-4-(4-fluorophenyl)thiazol-2-yl)(methyl)amino)-2-ethylimidazo[1,2-a]pyridin-6-yl)piperidin-1-yl)-N,N-dimethylacetamide]
11 | 0.01 to 100 | > 1000 | > 1000 | CCc1nc2ccc(N3CCN(C(=O)[C@H](C)O)CC3)cn2c1N(C)c1nc(-c2ccc(F)cc2)cs1 [Compound 203, (S)-1-(4-(2-ethyl-3-((4-(4-fluorophenyl)thiazol-2-yl)(methyl)amino)imidazo[1,2-a]pyridin-6-yl)piperazin-1-yl)-2-hydroxypropan-1-one]
12 | 0.01 to 100 | > 1000 | > 1000 | CCc1nc2ccc(N3CCS(=O)(=O)CC3)cn2c1N(C)c1nc(-c2ccc(F)cc2)cs1 [Compound 182, 4-(2-ethyl-3-((4-(4-fluorophenyl)thiazol-2-yl)(methyl)amino)imidazo[1,2-a]pyridin-6-yl)-thiomorpholine 1,1-dioxide]
13 | 0.01 to 100 | 100 to 500 | 100 to 500 | CCc1nc2ccc(C3CCN(CC(=O)N4CC(CO)C4)CC3)cn2c1N(C)c1nc(-c2ccc(F)cc2)cs1 [Compound 113, 2-(4-(2-ethyl-3-((4-(4-fluorophenyl)thiazol-2-yl)(methyl)amino)imidazo[1,2-a]pyridin-6-yl)piperidin-1-yl)-1-(3-(hydroxymethyl)azetidin-1-yl) ethanone]
14 | 0.01 to 100 | > 1000 | 100 to 500 | CCc1nc2ccc(C3CCN(S(=O)(=O)CCCO)CC3)cn2c1N(C)c1nc(-c2ccc(F)cc2)c(F)s1 [Compound 95, 3-[4-(2-Ethyl-3-{[5-fluoro-4-(4-fluoro-phenyl)-thiazol-2-yl]-methyl-amino}-imidazo[1,2-a]pyridin-6-yl)-piperidine-1-sulfonyl]-propan-1-ol]
15 | 0.01 to 100 | 0.01 to 100 | 0.01 to 100 | CCc1nc2ccc(N3CCN(CC(=O)N4CC(O)C4)CC3)cn2c1N(C)c1nc(-c2ccc(F)cc2)c(C#N)s1 [Compound 138, 2-((2-ethyl-6-(4-(2-(3-hydroxyazetidin-1-yl)-2-oxoethyl)piperazin-1-yl)imidazo[1,2-a]pyridin-3-yl)(methyl)amino)-4-(4-fluorophenyl)thiazole-5-carbonitrile]
16 | 0.01 to 100 | > 1000 | 100 to 500 | CCc1nc2ccc(C3=CCN(S(C)(=O)=O)CC3)cn2c1N(C)c1nccc(-c2ccc(F)cc2)n1 [Compound 187, 2-ethyl-N-(4-(4-fluorophenyl)pyrimidin-2-yl)-N-methyl-6-(1-(methylsulfonyl)-1,2,3,6-tetrahydropyridin-4-yl)imidazo[1,2-a]pyridin-3-amine]
17 | 0.01 to 100 | 500 to 1000 | > 1000 | CCc1nc2ccc(N3CCN(Cc4cnc[nH]4)CC3)cn2c1N(C)c1nc(-c2ccc(F)cc2)cs1 [Compound 192, N-(6-(4-((1H-imidazol-5-yl)methyl)piperazin-1-yl)-2-ethylimidazo[1,2-a]pyridin-3-yl)-4-(4-fluorophenyl)-N-methylthiazol-2-amine]
18 | 0.01 to 100 | 100 to 500 | 500 to 1000 | CCc1nc2c(C)cc(N3CCN(CC(=O)N4CC[C@H](O)C4)CC3)cn2c1N(C)c1nc(-c2ccc(F)cc2)c(C#N)s1 [Compound 5, (S)-2-((2-ethyl-6-(4-(2-(3-hydroxypyrrolidin-1-yl)-2-oxoethyl)piperazin-1-yl)-8-methylimidazo[1,2-a]pyridin-3-yl)(methyl)amino)-4-(4-fluorophenyl)thiazole-5-carbonitrile]

From patent US9670204B2, “Compounds and pharmaceutical compositions thereof for the treatment of inflammatory disorders” (Galapagos NV, priority 2013, dated 2017)
